Legend:
[1] = molecular target: T1, transactivation domain of HPV11 E2 (TAD) (Human papillomavirus 11, UniProt P04015); test: HPV E2 transactivation domain (TAD) ligand displacement assay; type: binding
T1 construct: HPV11 E2 amino acids 2* -215 (*Met-1 removed); made in house; host or cells: E. coli BL21 (DE3)pLysS, plasmid pET23a(+)
Description: This assay measures the binding of a radiolabeled compound (“probe”) to the transactivation domain of HPV11 E2 (TAD). The protein binds to Ni-coated Flash plates, and the measured signal being proportional to the concentration of bound probe. If a test compound binds to the TAD, it will displace the probe, which will result in a lower signal.
(§1) HPV-11 TAD: HPV11 E2 amino acids 2* -215 (*Met-1 removed) with an amino terminal epitope tag derived from the T7 phage gene 10 protein and a C-terminal His tag (SEQ ID NO.2). Total MW is 27 kDa.
25 mM MOPS, pH 7.0; 100 mM NaCl; 1 mM DTT; 0.0025% Tween-20. The pH was verified before adding DTT and Tween, and was adjusted where necessary. […]
TAD was diluted to 300 nM in assay buffer and used 20 μL […] dilution per well. […] This has a measurable effect on signal: background but little effect on z′ or measured inhibition (J.-H. Zhang, et al., 1999, J. Biomolecular Screening v4(2), 67-73). […]
The assay was performed in 96-well FlashPlates (PE/NEN). […] Plates were then sealed with TopCount-compatible sealing film, shaken briefly, incubated at room temperature, then counted on the TopCount after 3 hrs and again at 20 hrs.
The assay was run as described in Example 6. For each inhibitor concentration, the percent inhibition observed was calculated and the resulting inhibition curve was fit to a logistic using SAS. […]

[2] = molecular target: T1, transactivation domain of HPV11 E2 (TAD); test: isothermal titration calorimetry of probe binding to the TAD; conditions: isothermal titration calorimetry with its non-tritiated homolog
Protocol: Radiolabeled probe: The tritium labeled probe 1j binds to the TAD with a Kd of 40 nM, as determined by isothermal titration calorimetry with its non-tritiated homolog.
as §1

T1 sequence (P04015 2-215): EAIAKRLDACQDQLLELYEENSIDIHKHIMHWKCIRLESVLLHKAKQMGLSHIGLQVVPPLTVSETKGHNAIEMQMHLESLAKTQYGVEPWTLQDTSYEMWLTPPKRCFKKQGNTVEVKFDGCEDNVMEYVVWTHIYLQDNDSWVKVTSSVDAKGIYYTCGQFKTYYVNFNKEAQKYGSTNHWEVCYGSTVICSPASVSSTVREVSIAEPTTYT

Row | IC50 ([1]; counting at 20 hours, 50 nM TAD, 25 nM probe, FIG. 5) [µM] | IC50 ([1]; standard inhibitor, racemic mixture) [µM] | Kd [2] [µM] | Structure (SMILES)
1 | 4 ± 0.6 | ~10 | – | O=C(Nc1ccc2c(c1)OCO2)C1C(c2ccc(Cl)cc2)OC2(C(=O)c3ccccc3C2=O)C1C(=O)O (racemic) [Compound 3h]
2 | – | – | 0.04 | CC(=O)NCc1ccc(N2C(=O)[C@H]3[C@@H](C2=O)[C@@]2(O[C@H]3c3ccc(Br)c(Br)c3)C(=O)c3cc(C)sc3C2=O)cc1 [Compound 1j]

Reference: patent publication US6825176B2, “E2 displacement assay for identifying inhibitors of HPV” (Boehringer Ingelheim (Canada) Ltd., priority 2002, dated 2004)
